{"source": "patent US20090175845A1", "about": "“METHODS FOR IDENTIFYING COMPOUNDS THAT MODULATE PHB DOMAIN PROTEIN ACTIVITY AND COMPOSITIONS THEREOF” (THE TRUSTEES OF COLUMBIA UNIVERSITY IN THE CITY OF NEW YORK, priority 2005, published 2009)", "key": {"Podocin [1]": {"molecular_target": "T1, Podocin (Mus musculus, UniProt Q91X05)", "T1 construct": "expressed in transfected cells; host or cells: HEK 293T", "T1 sequence (Q91X05 1-385)": "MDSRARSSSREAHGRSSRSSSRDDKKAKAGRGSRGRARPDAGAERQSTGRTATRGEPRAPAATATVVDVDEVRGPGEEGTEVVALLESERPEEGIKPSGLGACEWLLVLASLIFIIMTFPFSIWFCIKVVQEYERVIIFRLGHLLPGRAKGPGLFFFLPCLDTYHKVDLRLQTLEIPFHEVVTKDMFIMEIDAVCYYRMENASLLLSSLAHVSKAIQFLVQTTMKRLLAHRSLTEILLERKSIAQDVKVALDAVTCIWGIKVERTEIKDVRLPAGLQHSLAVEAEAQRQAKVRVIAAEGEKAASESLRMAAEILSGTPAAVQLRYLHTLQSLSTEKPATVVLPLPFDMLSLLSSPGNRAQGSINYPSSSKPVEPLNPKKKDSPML", "assay": "Photoaffinity labeling with photoactivatable lipids in HEK 293T cells", "type": "binding", "settings": "Podocin expressed in HEK 293T cells, 16 hours, UV irradiation, autoradiography", "procedure": "(§1) Photoaffinity labeling. Experiments were performed as described infra. For labeling with [3H]photocholesterol or [3H]photophosphatidylcholine, cells were supplemented with delipidized FCS and [3H]photocholesterol-MBCD complex or 10-azi-stearate and [3H]choline were added. After 16 hours, cells were washed three times with Ca/Mg-PBS (PBS containing 0.1 mM CaCl2 and 1 mM MgCl2) and irradiated for 30 minutes in Ca/Mg-PBS with a 100 W mercury lamp. For further analysis, cells were lysed on ice for 1 h in lysis buffer (50 mM Tris-HCl pH 7.4, 140 mM NaCl, 5 mM EDTA, 0.5 mM phenylmethylsulfonyl fluoride (PMSF), 1% Triton® X-100, 0.5% deoxycholate). The lysate was centrifuged for eight minutes at 10,000×g, and the supernatant was subjected to immunoprecipitation using an anti-FLAG monoclonal antibody. Aliquots of the starting extract, the supernatants after immunoprecipitation and the immunoprecipitates were separated by SDS-PAGE (12%) followed by blotting of the proteins on PVDF membrane. Radioactivity was detected by phosphoimaging (Fujifilm BAS-2500, Fuji Photo Film Co., Ltd, Japan) using a Tritium-sensitive BAS-TR2025 imaging plate (Fuji Photo Film Co., Ltd, Japan). From the same membrane, an immunoblot was performed using anti-FLAG antibodies.\n(§2) Cell Culture Studies. Most cell studies used HEK 293T cells that were grown in DMEM as described [Huber et al. (2001) J. Biol. Chem. 18:18]. […]"}, "MEC-2": {"molecular_target": "T2, MEC-2 (Caenorhabditis elegans, UniProt Q27433)", "T2 construct": "expressed in transfected cells; host or cells: HEK 293T", "T2 sequence (Q27433 1-481)": "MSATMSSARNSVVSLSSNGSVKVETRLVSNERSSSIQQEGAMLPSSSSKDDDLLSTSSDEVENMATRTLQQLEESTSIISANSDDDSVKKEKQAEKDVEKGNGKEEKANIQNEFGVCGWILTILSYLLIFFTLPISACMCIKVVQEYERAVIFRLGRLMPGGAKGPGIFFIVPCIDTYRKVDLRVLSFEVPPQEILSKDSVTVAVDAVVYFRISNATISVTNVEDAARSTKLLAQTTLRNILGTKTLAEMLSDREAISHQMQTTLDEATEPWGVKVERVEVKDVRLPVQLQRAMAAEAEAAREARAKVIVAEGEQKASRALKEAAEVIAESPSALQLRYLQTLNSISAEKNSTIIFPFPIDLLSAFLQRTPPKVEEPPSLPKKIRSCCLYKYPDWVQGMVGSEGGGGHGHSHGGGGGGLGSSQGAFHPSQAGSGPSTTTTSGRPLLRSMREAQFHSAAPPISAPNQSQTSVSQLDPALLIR", "assay": "Photoaffinity labeling with photoactivatable lipids in HEK 293T cells", "type": "binding, C. elegans", "settings": "MEC-2 expressed in HEK 293T cells, 16 hours, UV irradiation, autoradiography", "procedure": "as §1, §2"}, "Podocin [2]": {"molecular_target": "T1, Podocin", "assay": "Detergent-resistant membrane (DRM) fractionation by density gradient centrifugation", "type": "cell-based", "settings": "limited cholesterol depletion with MBCD; readdition of cholesterol, FIG. 1D", "procedure": "Preparation of Detergent-Resistant Membrane Domains and Cholesterol Measurement—For preparation of low-density Triton® X-100—insoluble membrane domains (DRM; LDF) HEK 293T cells were homogenized by 20 strokes in a Dounce homogenizer in 1 ml of MBS buffer (250 mM NaCl, 5 mM EDTA, 10 mM Tris, pH 7.4, proteinase inhibitors) in the presence of 1% Triton® X-100 and centrifuged for ten minutes at 3,000×g at 4° C. The lysates were incubated for 45 minutes on ice in the presence of 1% Triton® X-100, adjusted to 45% sucrose and pipetted at the bottom of an ultracentrifuge tube. Samples were then overlaid with a sucrose step gradient (2 ml of 30% sucrose and 1 ml of 5% sucrose in MBS) as described previously {Huber, 2003 #205}. Gradients were centrifuged for 20 hours at 200,000×g at 4° C. in a swing-out rotor, and seven fractions ([…] each) were collected starting from the top and analyzed by SDS-PAGE. Cholesterol was measured using the Amplex® Red Cholesterol Assay Kit (Molecular Probes).\nCell Culture Studies. Most cell studies used HEK 293T cells that were grown in DMEM as described [Huber et al. (2001) J. Biol. Chem. 18:18]. Cholesterol-depleted cells were prepared by growing cells in DMEM with pravastatin (8 μM) for two days and then methyl-β-cyclodextrine (MBCD; 5 mM) for 30 minutes just before the experiment. […]"}}}
{"smiles": "CC(C)CCC[C@@H](C)[C@H]1CC[C@H]2[C@@H]3CC=C4C[C@@H](O)CC[C@]4(C)[C@H]3CC[C@]12C", "note": "[cholesterol]", "values": [{"measurement": "binding of photoactivatable lipid to Podocin", "setting": "Podocin [1]", "result": "bound"}, {"measurement": "binding of photoactivatable lipid to MEC-2", "setting": "MEC-2", "result": "bound"}, {"measurement": "Podocin in DRM fractions", "setting": "Podocin [2]", "result": "could be reversed"}]}
